Assay results as given in ChEMBL document CHEMBL5154818, “Development of oxoisoaporphine derivatives with topoisomerase I inhibition and reversal of multidrug resistance in breast cancer MCF-7/ADR cells” (Eur J Med Chem, 2022).
pIC50: −log10 of the molar value. The source made the active and inactive calls. The calls are words filed in the database; no cut-off is given here.

Assays:
MCF7 [1] = test: Induction of apoptosis in human MCF7 cells assessed as late apoptotic cells at 2 to 8 uM incubated for 48 hrs by Annexin V-FITC/propidium iodide staining based flow cytometry analysis; type: functional; settings: dose 2-8 µM
NCI/ADR-RES [2] = test: Induction of apoptosis in human MCF7/ADR cells assessed as increase in Bax expression at 5 to 20 uM measured after 24 hrs by Western blotting analysis; type: functional, cell-based; settings: dose 5-20 µM
MCF7 [3] = test: Induction of apoptosis in human MCF7 cells assessed as early apoptotic cells at 2 to 8 uM incubated for 48 hrs by Annexin V-FITC/propidium iodide staining based flow cytometry analysis; type: functional; settings: dose 2-8 µM
MCF7 [4] = test: Antiproliferative activity against human MCF7 cells assessed as growth inhibition at 3 uM after 48 hrs by MTT assay relative to control; type: functional; settings: read-out: GI
MDA-MB-231 = test: Antiproliferative activity against human MDA-MB-231 cells after 48 hrs by MTT assay; type: functional, cell-based; settings: MDA-MB-231, 48 h
L02 = test: Antiproliferative activity against human L02 cells after 48 hrs by MTT assay; type: functional, cell-based; settings: L02, 48 h
MCF7 [5] = test: Induction of cell cycle arrest in human MCF7 cells assessed accumulation of cells at G1 phase at 2 uM measured after 48 hrs by propidium iodide staining based flow cytometric analysis (reference value: 45.94%); type: functional
[6] = Toxicity in BALB/c nude mouse xenografted with human MCF7 cells assessed as increase in survival rate at 10 mg/kg, ip administered 3 times a week for 3 weeks; type: organism-based; settings: in vivo, 504 h
MCF7 [7] = test: Antitumor activity against human MCF7 cells xenografted in Balb/c nude mouse assessed as tumor growth inhibition at 1 mg/kg, ip administered 3 times a week for 3 weeks; type: functional; settings: MCF7, 504 h, read-out: TGI
MCF7 [8] = test: Induction of cell cycle arrest in human MCF7 cells assessed accumulation of cells at S phase at 8 uM measured after 48 hrs by propidium iodide staining based flow cytometric analysis (reference value: 27.53%); type: functional
MCF7 [9] = test: Induction of cell cycle arrest in human MCF7 cells assessed accumulation of cells at G2 phase at 8 uM measured after 48 hrs by propidium iodide staining based flow cytometric analysis (reference value: 37.81%); type: functional
NCI/ADR-RES [10] = test: Induction of apoptosis in human MCF7/ADR cells assessed as increase intracellular ROS level at 0.1 uM measured by DCFH-DA dye based flow cytometric analysis; type: functional, cell-based
MCF7 [11] = test: Induction of apoptosis in human MCF7 cells assessed as increase in cleaved caspase-3 expression 1.5 to 6 uM incubated for 24 hrs by Western blotting analysis; type: functional, cell-based; settings: dose 1.5-6 µM
[12] = Toxicity in BALB/c nude mouse xenografted with human MCF7 cells assessed as lung tissue damage at 1 to 10 mg/kg, ip administered 3 times a week for 3 weeks; type: organism-based; settings: in vivo, 504 h, dose 1-10 mg/kg

CC1CCCCN1CCOc1ccc2c3c(nccc13)-c1ccccc1C2=O (centres undefined)
Activity (MCF7 [1]): 59.5%
Activity (NCI/ADR-RES [2]): Active
Activity (MCF7 [3]): 5.4%
inhibition of growth at 3 µM (MCF7 [4]): 24.4%
pIC50 (MDA-MB-231): 5.62
pIC50 (L02): 4.44
Activity (MCF7 [5]): 49.45%
Activity [6]: Non-Toxic
inhibition in vivo at 1 mg/kg (MCF7 [7]): 32.4%
Activity (MCF7 [8]): 24.3%
Activity (MCF7 [9]): 31.38%
Activity (NCI/ADR-RES [10]): Active
Activity (MCF7 [11]): Active
Activity [12]: Non-Toxic
